Source: article PMC12406198, “Decadentate Acyclic Chelators for Lanthanum Radiopharmaceuticals” (Journal of Medicinal Chemistry, 2025)
Like-named read-outs stand apart in the source and are kept apart here.

Legend:
[1] = Ligand protonation constants by pH-potentiometric titration; format: physicochemical; details: sum of literature protonation constants of related ligands
[2] = literature value, cited from earlier work
[3] = Stability constants of La^3+ complexes by pH potentiometry; format: physicochemical; details: −log[La^3+]free for [L] = 10 μM and [La^3+] = 1 μM at pH 7.4 and 25 °C; from literature constants
Experimental: The stability constants of the La^3+ complexes were determined using pH potentiometry (I = 0.15 NaCl). A significant amount of the metal ion is not complexed by the TPADAC^4– ligand at the beginning of the titration at pH 1.7 (∼20%), which allows for stability constant determination using potentiometry. In the case of TPAEN^4– the amount of free La^3+ was small (∼4%), but the stability constants could be determined by fitting the titration data using both 1:1 and 1:2 (TPAEN^4–:La^3+) stoichiometries (Figure S1, Supporting Information). The TPADAC^4– ligand also forms complexes with 1:1 and 1:2 stoichiometries (Figure S2, Supporting Information).
The thermodynamic stability of the complexes at physiologically relevant pH was assessed by calculating pLa values, defined as −log[La^3+]free for [L] = 10 μM and [La^3+] = 1 μM at pH 7.4 and 25 °C following the recommendation of Raymond. This is a result of the high stability constants (log K LaL) that characterize the formation of these complexes, as well as the relatively low basicity of these ligands. Indeed, cyclohexyl derivatives TPADAC^4– and CHXOCTAPA^4– display considerably higher basicity than the ethyl analogues, as indicated by the Σ log K i ^H (i = 1–5) values shown in Table . Similarly, DTPA and DO3A derivatives are characterized by rather high basicities, which results in relatively low pLa values.
The pH-potentiometric titrations were carried out with a Methrohm 785 DMP titrator using a Metrohm-6.0233.100 combined electrode. The titrated solutions (5.000 mL) were thermostated at 25 °C and stirred and kept under inert gas atmosphere (N2) to avoid the effect of CO2. The pH-calibration of the electrode was performed using KH-phthalate (pH = 4.005) and borax (pH = 9.177) buffers. The concentrations of the ligand stock solutions were determined by pH-potentiometric titration. The protonation constants of the TPAEN^4– (in the pH range of 2.19–12.00 a total of 213 data pairs by titrating a 2.72 mM a ligand solution) and TPADAC^4– (in the pH range of 1.88–11.85 a total of 208 data pairs by titrating a 2.32 mM ligand solution), the stability and protonation constants of the complexes formed with La^3+ and the formation constants of their dinuclear complexes were determined by pH-potentiometric titration. The metal-to-ligand concentration ratios were 1:1 and 2:1. For the 1:1 ratio a total of 240 data pairs were recorded for a H4TPAEN concentration of 2.29 mM in the pH range of 1.77–11.86, while a total of 222 data pairs were collected in the pH range 1.72–11.85 for a 2.72 mM solution of H4TPADAC. For the 2:1 ratio we collected 259 data pairs for a 2.31 mM solution of H4TPAEN in the pH range of 1.73–11.82, and 259 data pairs for a 2.71 mM concentration of H4TPADAC in the pH range of 1.70–11.85. The calculation of [H^+] from the measured pH values was performed with the use of the method proposed by Irving et al. by titrating a 0.01 M HCl solution (I = 0.15 M NaCl) with a standardized NaOH solution. The differences between the measured and calculated pH values were used to obtain the [H^+] concentrations from the pH-data obtained in the titrations. The ionic product of water was determined from the same experiment in the pH range 11.25–11.85. The protonation and stability constants were calculated from the titration data with the PSEQUAD program. The quality of the fits was assessed with the fitting parameter (FP) calculated by PSEQUAD, which is defined as 2 FP=∑i=1n(Vi,calc−Vi,meas)^2/n−k

[4] = 0.15 M NaCl; ref footnote a; cited from earlier work

O=C(O)CN(CCN(CC(=O)O)Cc1cccc(C(=O)O)n1)Cc1cccc(C(=O)O)n1 [OCTAPA^4–, 6,6′-((ethane-1,2-diylbis((carboxymethyl)azanediyl))bis(methylene))dipicolinic acid]
Σ log K i ^H (i = 1–5) [1]: 22.20
log K 1 ^H ([2]; ref footnote a): 8.52
log K 2 ^H ([2]; ref footnote a): 5.40
log K 3 ^H ([2]; ref footnote a): 3.65
log K 4 ^H ([2]; ref footnote a): 2.97
log K 5 ^H ([2]; ref footnote a): 1.66
log K 1 ^H ([2]; ref footnote b): 8.58
log K 2 ^H ([2]; ref footnote b): 5.43
log K 3 ^H ([2]; ref footnote b): 3.75
log K 4 ^H ([2]; ref footnote b): 3.08
log K 5 ^H ([2]; ref footnote b): 2.21
log K 6 ^H ([2]; ref footnote b): 1.61 ^b
pLa [3]: 19.7
log K LaL [4]: 19.92
